Our source for the Kd values is PMC9078765, “Utilizing Network Pharmacology and Molecular Docking Integrated Surface Plasmon Resonance Technology to Investigate the Potential Targets and Mechanisms of Tripterygium wilfordii against Pulmonary Artery Hypertension” (Evidence-based Complementary and Alternative Medicine : eCAM, 2022).

The assay has as its target T1, CASP3 (Casp3) (Homo sapiens, UniProt P42574).
T1 construct: commercial recombinant protein, captured on Ni-NTA chip (His tag implied)
T1 sequence (P42574 29-175): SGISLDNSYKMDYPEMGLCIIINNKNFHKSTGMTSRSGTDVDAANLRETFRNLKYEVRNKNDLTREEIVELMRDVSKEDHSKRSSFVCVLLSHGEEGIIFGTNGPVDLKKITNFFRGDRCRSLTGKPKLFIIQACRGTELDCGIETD
T1 sequence (P42574 176-277): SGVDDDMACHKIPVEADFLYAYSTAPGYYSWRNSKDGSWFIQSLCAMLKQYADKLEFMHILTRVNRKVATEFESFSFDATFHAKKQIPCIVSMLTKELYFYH
The experiment in a line: SPR (OpenSPR, NTA chip, one-to-one model). Type of assay: binding. An excerpt: SPR (OpenSPR, NTA chip, one-to-one model) on CASP3 (Casp3)

The compound `O=c1c(O)c(-c2ccc(O)cc2)oc2cc(O)cc(O)c12` [Kaempferol] displayed a Kd of 7.65 µM.
